From PubChem BioAssay AID1259411 (Chemical Carcinogenesis Research Information System (CCRIS), 2018) come the findings set out here.

Activity calls are given as the source filed them. How the calls were made is not given here.

In this series the test system is rodent carcinogenicity bioassays, tumor incidence. The experiment in a line: CCRIS carcinogenicity studies. Summed up: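 Archive of carcinogenicity, mutagenicity, tumor promotion and tumor inhibition results drawn from journals, NCI reports and other sources, expert-reviewed; covers 1985-2011 and is no longer updated.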

With `CCN(C)N=O`, the carcinogen call is, setting by setting: (Species: HAMSTER, Strain/Sex: SYRIAN/MALE, Route: GAVAGE, Dose: 0, 1.8 MG/KG 1/WK FOR 23-30 WK (TOTAL DOSE: 0; 0.53 MMOL) (STUDY DURATION: LIFETIME), Dose: 0, 1.8 MG/KG 1/WK FOR 23-30 WK (TOTAL DOSE: 0; 0.53 MMOL) (STUDY DURATION: LIFETIME), Tumor Site: Type of Lesion: LIVER: HEPATOCELLULAR CARCINOMA, HEPATOCELLULAR ADENOMA, CHOLANGIOCARCINOMA, CHOLANGIOMA, HEMANGIOSARCOMA, NASAL MUCOSA:) “active; positive”; (Species: RAT, Strain/Sex: F344/FEMALE, Route: GAVAGE, Dose: 0, 4.6 MG/WK FOR A TOTAL DOSE OF 1.4 MMOL (STUDY DURATION: 40 WK), Tumor Site: Type of Lesion: LIVER: TUMOR, LUNG: TUMOR) “active; positive”; (Species: RAT, Strain/Sex: F344/FEMALE, Route: INTRAVESICULAR, Dose: 0, 2.3 MG IN 0.2 ML ETHANOL: DEIONIZED WATER (1:3) 2/WK FOR 30 WK (TOTAL DOSE 1.6 MMOL) (STUDY DURATION: LIFESPAN), Tumor Site: Type of Lesion: LIVER: HEMANGIOSARCOMA, LUNG: TUMOR, KIDNEY: TUMOR, Tumor Site: Type of Lesion: LIVER: HEMANGIOSARCOMA, LUNG: TUMOR, KIDNEY: TUMOR) “active; positive”; (Species: RAT, Strain/Sex: F344/MALE, Route: GAVAGE, Dose: 0, 4.6 MG/WK FOR A TOTAL DOSE OF 1.6 MMOL (STUDY DURATION: 60 WK), Tumor Site: Type of Lesion: LIVER: TUMOR, LUNG: TUMOR, NASAL MUCOSA: TUMOR, Tumor Site: Type of Lesion: LIVER: TUMOR, LUNG: TUMOR, NASAL MUCOSA: TUMOR) “active; positive”.

On to `O[C@H]1CCc2c(ccc3cc4ccc5ccccc5c4nc23)[C@@H]1O`, for which the carcinogen call runs as follows: (Species: MOUSE, Strain/Sex: CD-1/FEMALE, Route: INTRAPERITONEAL, Dose: 0, 175 NMOL (TOTAL DOSE) ADMINISTERED AS 1/7 OF DOSE WITHIN 24 HR AFTER BIRTH, 2/7 OF DOSE AT 8 D OLD, 4/7 OF DOSE AT 15) “inactive; negative”; (Species: MOUSE, Strain/Sex: CD-1/MALE, Route: INTRAPERITONEAL, Dose: 0, 175 NMOL (TOTAL DOSE) ADMINISTERED AS 1/7 OF DOSE WITHIN 24 HR AFTER BIRTH, 2/7 OF DOSE AT 8 D OLD, 4/7 OF DOSE AT 15) “inactive; negative”.

Regarding `O=C/C=C/c1ccccc1`, the carcinogen call (Species: MOUSE, Strain/Sex: B6C3F1/MALE, FEMALE (50/GROUP), Route: ORAL, Dose: 0, 1000, 2100, 4100 PPM MICROENCAPSULATED IN DIET FOR 2 YR (STUDY DURATION: 2 YR), Dose: 0, 1000, 2100, 4100 PPM MICROENCAPSULATED IN DIET FOR 2 YR (STUDY DURATION: 2 YR), Tumor Site: Type of Lesion: NONE) was “inactive; negative” and the carcinogen call (Species: RAT, Strain/Sex: F344/N/MALE, FEMALE (50/GROUP), Route: ORAL, Dose: 0, 1000, 2100, 4100 PPM MICROENCAPSULATED IN DIET FOR 2 YR (STUDY DURATION: 2 YR), Dose: 0, 1000, 2100, 4100 PPM MICROENCAPSULATED IN DIET FOR 2 YR (STUDY DURATION: 2 YR), Tumor Site: Type of Lesion: NONE) was “inactive; negative”.

For the compound `CCOP(=S)(OCC)Oc1cc(C)nc(C(C)C)n1`, the carcinogen call is “inactive; negative” (Species: MOUSE, Strain/Sex: B6C3F1/FEMALE, Route: ORAL, Dose: 0, 100, 200 PPM IN DIET, Dose: 0, 100, 200 PPM IN DIET); “inactive; negative” (Species: MOUSE, Strain/Sex: B6C3F1/MALE, Route: ORAL, Dose: 0, 100, 200 PPM IN DIET, Dose: 0, 100, 200 PPM IN DIET); “inactive; negative” (Species: RAT, Strain/Sex: F344/FEMALE, Route: ORAL, Dose: 0, 400, 800 PPM IN DIET, Dose: 0, 400, 800 PPM IN DIET); “inactive; negative” (Species: RAT, Strain/Sex: F344/MALE, Route: ORAL, Dose: 0, 400, 800 PPM IN DIET, Dose: 0, 400, 800 PPM IN DIET).

Regarding `COc1ccc([C@@H]2CC(=O)c3c(O)cc(O[C@@H]4O[C@H](CO[C@@H]5O[C@@H](C)[C@H](O)[C@@H](O)[C@H]5O)[C@@H](O)[C@H](O)[C@H]4O)cc3O2)cc1OC`, the carcinogen call (Species: MOUSE, Strain/Sex: B6C3F1/FEMALE, Route: ORAL, Dose: 0, 1.25, 5% IN DIET FOR 96 WK FOLLOWED BY BASAL DIET FOR AN ADDITIONAL 8 WK (STUDY DURATION: 104 WK), Dose: 0, 1.25, 5% IN DIET FOR 96 WK FOLLOWED BY BASAL DIET FOR AN ADDITIONAL 8 WK (STUDY DURATION: 104 WK)) was “inactive; negative” and the carcinogen call (Species: MOUSE, Strain/Sex: B6C3F1/MALE, Route: ORAL, Dose: 0, 1.25, 5% IN DIET FOR 96 WK FOLLOWED BY BASAL DIET FOR AN ADDITIONAL 8 WK (STUDY DURATION: 104 WK), Dose: 0, 1.25, 5% IN DIET FOR 96 WK FOLLOWED BY BASAL DIET FOR AN ADDITIONAL 8 WK (STUDY DURATION: 104 WK)) was “inactive; negative”.

With `Nc1ccc(C(=O)Nc2ccccc2N)cc1`, the carcinogen call is “active; positive” (Species: RAT, Strain/Sex: CD-1/FEMALE, Route: GAVAGE, Dose: 0, 1, 3, 9 (WK 1-25), 6 (WK 26-46), 5 (WK 47-106) MG/KG IN 0.8% METHOCEL (TOTAL VOLUME 0.2-0.5 ML/RAT 2/WK FOR 105 WK (M, Dose: 0, 1, 3, 9 (WK 1-25), 6 (WK 26-46), 5 (WK 47-106) MG/KG IN 0.8% METHOCEL (TOTAL VOLUME 0.2-0.5 ML/RAT 2/WK FOR 105 WK (M, Tumor Site: Type of Lesion: ADRENAL GLAND: TUMOR, OVARIES: TUMOR, VAGINA: TUMOR, Tumor Site: Type of Lesion: ADRENAL GLAND: TUMOR, OVARIES: TUMOR, VAGINA: TUMOR) and “active; positive” (Species: RAT, Strain/Sex: CD-1/MALE, Route: GAVAGE, Dose: 0, 1, 3, 9 (WK 1-25), 6 (WK 26-46), 5 (WK 47-106) MG/KG IN 0.8% METHOCEL(TOTAL VOLUME 0.2-0.5 ML/RAT 2/WK FOR 105 WK (ME, Dose: 0, 1, 3, 9 (WK 1-25), 6 (WK 26-46), 5 (WK 47-106) MG/KG IN 0.8% METHOCEL(TOTAL VOLUME 0.2-0.5 ML/RAT 2/WK FOR 105 WK (ME, Tumor Site: Type of Lesion: ADRENAL GLAND: TUMOR, TESTES: TUMOR).

Consider `Cc1cc2c(nc1N)[nH]c1ccccc12`, for which the carcinogen call (Species: MOUSE, Strain/Sex: CDF1/FEMALE, Route: ORAL, Dose: 0, 0.08% IN DIET FOR UP TO 685 D (STUDY DURATION: 685 D), Tumor Site: Type of Lesion: LIVER: HEPATOCELLULAR ADENOMA OR CARCINOMA, BLOOD VESSELS: HEMANGIOENDOTHELIOMA OR HEMANGIOENDOTHELIAL SARCOMA) is “active; positive”; the carcinogen call (Species: MOUSE, Strain/Sex: CDF1/MALE, Route: ORAL, Dose: 0, 0.05% IN DIET FOR UP TO 685 D (STUDY DURATION: 685 D), Tumor Site: Type of Lesion: LIVER: HEPATOCELLULAR ADENOMA OR CARCINOMA, BLOOD VESSELS: HEMANGIOENDOTHELIOMA OR HEMANGIOENDOTHELIAL SARCOMA) was “active; positive”; the carcinogen call (Species: RAT, Strain/Sex: F344/MALE, Route: ORAL, Dose: 0, 0.01, 0.02% IN DIET FOR 100 WK (STUDY DURATION: 100 WK), Dose: 0, 0.01, 0.02% IN DIET FOR 100 WK (STUDY DURATION: 100 WK), Tumor Site: Type of Lesion: LIVER: HEPATOCELLULAR CARCINOMA, PANCREAS: ACINAR CELL ADENOMA, SKIN (SUBCUTIS): FIBROMA, Tumor Site: Type of Lesion: LIVER: HEPATOCELLULAR CARCINOMA, PANCREAS: ACINAR CELL ADENOMA, SKIN (SUBCUTIS): FIBROMA) was “active; positive”.

Regarding `NC(Cc1ccc(N(CCCl)CCCl)cc1)C(=O)O` (stereo not given), the carcinogen call (Species: RAT, Strain/Sex: SWISS/FEMALE, Route: INTRAPERITONEAL, Dose: 10 MG/KG, Tumor Site: Type of Lesion: MAMMARY GLAND: FIBROADENOMA) is “active; positive”.

Consider `Cc1ccc2c(c1)C1=Nc3ccccc3C3=Nc4ccccc4C(=N2)N31`, for which, for the setting “Species: MOUSE, Strain/Sex: ALBINO/MALE, FEMALE, Route: DERMAL, Tumor Site: Type of Lesion: SKIN: TUMOR”, the carcinogen call is “active; positive”.

Turning to `CCOC(=O)Nc1cccc(OC(=O)Nc2ccccc2)c1`, the carcinogen call is “inactive; negative” (Species: Mouse, Strain/Sex: NMRI/Female (50/Group), Route: Oral, Dose: 0, 30, 150, 750 ppm in diet for 104 wk, Dose: 0, 30, 150, 750 ppm in diet for 104 wk); “inactive; negative” (Species: Mouse, Strain/Sex: NMRI/Male (50/Group), Route: Oral, Dose: 0, 30, 150, 750 ppm in diet for 104 wk, Dose: 0, 30, 150, 750 ppm in diet for 104 wk); “inactive; negative” (Species: Rat, Strain/Sex: Wistar KFM-Han/Female (50/Group), Route: Oral, Dose: 0, 60, 300, 1500 ppm in diet for 2 yr, Dose: 0, 60, 300, 1500 ppm in diet for 2 yr); “inactive; negative” (Species: Rat, Strain/Sex: Wistar KFM-Han/Male (50/Group), Route: Oral, Dose: 0, 60, 300, 1500 ppm in diet for 2 yr, Dose: 0, 60, 300, 1500 ppm in diet for 2 yr).
